These compounds were tested against T1, Human Factor D (Homo sapiens, UniProt P00746) (assay: Human Factor D Assay). Conditions: Table 1; Factor D 80 nM, substrate Z-L-Lys-SBzl; read-out: IC50.
T1 construct: purified from human serum; purchased Complement Technology, Inc; host or cells: human serum (natural protein, not recombinant)
Type: biochemical
Experimental: Human Factor D (purified from human serum, Complement Technology, Inc.) at 80 nM final concentration is incubated with test compound at various concentrations for 5 minutes at room temperature in 50 mM Tris, 1M NaCl, pH 7.5. A synthetic substrate Z-L-Lys-SBzl and DTNB (Ellman's reagent) are added to final concentrations of 100 μM each. Absorbance at 405 nm (A405) is recorded at 30 second intervals for 30 minutes using a microplate spectrophotometer. IC50 values are calculated by nonlinear regression of complement Factor D reaction rates as a function of test compound concentration.

T1 sequence (P00746 26-253): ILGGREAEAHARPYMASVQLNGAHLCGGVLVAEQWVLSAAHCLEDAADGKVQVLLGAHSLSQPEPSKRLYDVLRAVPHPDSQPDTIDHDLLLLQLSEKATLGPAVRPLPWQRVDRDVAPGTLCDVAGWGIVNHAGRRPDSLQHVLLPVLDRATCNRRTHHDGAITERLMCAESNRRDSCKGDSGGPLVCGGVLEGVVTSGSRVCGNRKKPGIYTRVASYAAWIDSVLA

SMILES	IC50
CC(=O)c1cn(CC(=O)N2C[C@H](F)C[C@H]2C(=O)NCc2cccc(Cl)c2F)c2ccc(NC(=O)NCc3nn[nH]n3)cc12 [Compound 2, (2S,4R)-1-(2-(5-(3-((2H-tetrazol-5-yl)methyl)ureido)-3-acetyl-1H-indol-1-yl)acetyl)-N-(3-chloro-2-fluorobenzyl)-4-fluoropyrrolidine-2-carboxamide]	< 1000 nM
CC(=O)c1cn(CC(=O)N2C[C@H](F)C[C@H]2C(=O)NCc2cccc(Cl)c2F)c2cc(C(=O)N[C@H]3CCNC3)ccc12 [Compound 45, 3-acetyl-1-(2-((2S,4R)-2-(3-chloro-2-fluorobenzyl-carbamoyl)-4-fluoropyrrolidin-1-yl)-2-oxoethyl)-N-((S)-pyrrolidin-3-yl)-1H-indole-6-carboxamide]	< 1000 nM
CC(=O)c1cn(CC(=O)N2C[C@H](F)C[C@H]2C(=O)NCc2cccc(Cl)c2F)c2ccc(NC(=O)Nc3cncnc3)cc12 [Compound 23, (2S,4R)-1-(2-(3-acetyl-5-(3-pyrimidin-5-ylureido)-1H-indol-1-yl)acetyl)-N-(3-chloro-2-fluorobenzyl)-4-fluoropyrrolidine-2-carboxamide]	< 1000 nM
NC(=O)c1nn(CC(=O)N2C[C@H](F)C[C@H]2C(=O)Nc2cccc(-c3ccccc3Cl)c2F)c2ccc(NC(=O)N3CCC(F)(F)C3)cc12 [Compound 30, 1-(2-((2S,4R)-2-(2′-chloro-2-fluorobiphenyl-3-ylcarbamoyl)-4-fluoropyrrolidin-1-yl)-2-oxoethyl)-5-(3,3-difluoropyrrolidine-1-carboxamido)-1H-indazole-3-carboxamide]	< 1000 nM
NC(=O)c1nn(CC(=O)N2[C@@H]3C[C@@H]3C[C@H]2C(=O)Nc2cccc(Br)n2)c2ccc(NC(=O)N3CCCC(F)(F)C3)cc12 [Compound 34, 1-(2-((1R,3S,5R)-3-(6-bromopyridin-2-ylcarbamoyl)-2-azabicylco[3.1.0]hexan-2-yl)-2-oxoethyl)-5-(3,3-difluoropiperidine-1-carboxamido)-1H-indazole-3-carboxamide]	< 1000 nM
CC(=O)c1cn(CC(=O)N2C[C@H](F)C[C@H]2C(=O)NCc2cccc(Cl)c2F)c2ccc(C(=O)N3CC=C(B(O)O)CC3)cc12 [Compound 38, 1-(3-acetyl-1-(2-((2S,4R)-2-(3-chloro-2-fluorobenzylcarbamoyl)-4-fluoropyrrolidin-1-yl)-2-oxoethyl)-1H-indole-5-carbonyl)-1,2,3,6-tetrahydropyridin-4-ylboronic acid]	< 1000 nM
CC(=O)c1cn(CC(=O)N2C[C@H](F)C[C@H]2C(=O)NCc2cccc(Cl)c2F)c2ccc(C(=O)N3CCCC(F)(F)C3)cc12 [Compound 40, (2S,4R)-1-(2-(3-acetyl-5-(3,3-difluoropiperidine-1-carbonyl)-1H-indol-1-yl)acetyl)-N-(3-chloro-2-fluorobenzyl)-4-fluoropyrrolidine-2-carboxamide]	< 1000 nM
NC(=O)c1nn(CC(=O)N2C[C@H](F)C[C@H]2C(=O)Nc2cccc(Br)n2)c2ccc(NC(=O)N3CCCC(F)(F)C3)cc12 [Compound 33, 1-(2-((2S,4R)-2-(6-bromopyridin-2-ylcarbamoyl)-4-fluoropyrrolidin-1-yl)-2-oxoethyl)-5-(3,3-difluoropiperidine-1-carboxamido)-1H-indazole-3-carboxamide]	< 1000 nM
CC(=O)c1cn(CC(=O)N2C[C@H](F)C[C@H]2C(=O)NCc2cccc(Cl)c2F)c2cc(C(=O)N3CCC(C(=O)O)C3)ccc12 (stereo partly drawn) [Compound 52, 1-(3-acetyl-1-(2-((2S,4R)-2-(3-chloro-2-fluorobenzylcarbamoyl)-4-fluoropyrrolidin-1-yl)-2-oxoethyl)-1H-indole-6-carbonyl)pyrrolidine-3-carboxylic acid]	< 1000 nM
CC(=O)c1cn(CC(=O)N2C[C@H](F)C[C@H]2C(=O)Nc2cccc(-c3ccccc3Cl)c2F)c2ccc(NC(=O)C3CCC(F)(F)C3)cc12 (stereo partly drawn) [Compound 35, (2S,4R)-1-(2-(3-acetyl-5-(3,3-difluorocyclopentane-carboxamido)-1H-indol-1-yl)acetyl)-N-(2′-chloro-2-fluorobiphenyl-3-yl)-4-fluoropyrrolidine-2-carboxamide]	< 1000 nM
CC(=O)c1cn(CC(=O)N2C[C@H](F)C[C@H]2C(=O)NCc2cccc(Cl)c2F)c2cc(C(=O)N3CCC(CN)C3)ccc12 (stereo partly drawn) [Compound 42, (2S,4R)-1-(2-(3-acetyl-6-(3-(aminomethyl)-pyrrolidine-1-carbonyl)-1H-indol-1-yl)acetyl)-N-(3-chloro-2-fluorobenzyl)-4-fluoropyrrolidine-2-carboxamide]	< 1000 nM
CC(=O)c1cn(CC(=O)N2C[C@H](F)C[C@H]2C(=O)NCc2cccc(Cl)c2F)c2ccc(NC(=O)N3CCCC3)cc12 [Compound 9, N-(3-acetyl-1-(2-((2S,4R)-2-(3-chloro-2-fluorobenzylcarbamoyl)-4-fluloropyrrolidin-1-yl)-2-oxoethyl)-1H-indol-5-yl)pyrrolidine-1-carboxamide]	< 1000 nM
NC(=O)c1nn(CC(=O)N2C[C@H](F)C[C@H]2C(=O)Nc2cccc(-c3ccccc3Cl)c2F)c2cc(C(=O)NS(=O)(=O)C3CC3)ccc12 [Compound 54]	< 1000 nM
NC(=O)c1nn(CC(=O)N2C[C@H](F)C[C@H]2C(=O)Nc2cccc(OC(F)(F)F)c2F)c2ccc(NC(=O)Nc3ccon3)cc12 [Compound 25, 1-(2-((2S,4R)-4-fluoro-2-(2-fluoro-3-(trifluoromethoxy)phenylcarbamoyl)pyrrolidin-1-yl)-2-oxoethyl)-5-(3-isoxazol-3-ylureido)-1H-indazole-3-carboxamide]	< 1000 nM
CC(=O)c1cn(CC(=O)N2C[C@H](F)C[C@H]2C(=O)Nc2cccc(C(F)(F)F)n2)c2ccc(NC(=O)N3CCCC(F)(F)C3)cc12 [Compound 20, N-(3-acetyl-1-(2-((2S,4R)-4-fluoro-2-(6-(trifluoromethyl)pyridin-2-ylcarbamoyl)pyrrolidin-1-yl)-2-oxoethyl)-1H-indol-5-yl)-3,3-difluoropiperidine-1-carboxamide]	< 1000 nM
CC(=O)c1cn(CC(=O)N2C[C@H](F)C[C@H]2C(=O)Nc2cccc(-c3ccccc3Cl)c2F)c2ccc(NC(=O)N3CCCC(F)(F)C3)cc12 [Compound 18, N-(3-acetyl-1-(2-((2S,4R)-2-(2′-chloro-2-fluorobiphenyl-3-ylcarbamoyl)-4-fluoropyrrolidin-1-yl)-2-oxoethyl)-1H-indol-5-yl)-3,3-difluoropiperidine-1-carboxamide]	< 1000 nM
CC(=O)c1cn(CC(=O)N2C[C@H](F)C[C@H]2C(=O)NCc2cccc(Cl)c2F)c2cc(C(=O)NS(C)(=O)=O)ccc12 [Compound 43]	< 1000 nM

Same assay, conditions: Table 2; Factor D 80 nM, substrate Z-L-Lys-SBzl; read-out: IC50

IC50	SMILES
< 1000 nM	CC(C)(C)C(=O)Nc1nc2c(s1)c(C(N)=O)nn2CC(=O)N1C[C@H](F)C[C@H]1C(=O)Nc1cccc(-c2ccccc2Cl)c1F [Compound 55, 1-(2-((2S,4R)-2-(2′-chloro-2-fluorobiphenyl-3-ylcarbamoyl)-4-fluoropyrrolidin-1-yl)-2-oxoethyl)-5-pivalamido-1H-pyrazolo[3,4-d]thiazole-3-carboxamide]
< 1000 nM	CNC(=O)c1cc2c(s1)c(C(N)=O)nn2CC(=O)N1C[C@H](F)C[C@H]1C(=O)Nc1cccc(-c2ccccc2Cl)c1F [Compound 58]

Same assay, conditions: Table 3; factor D inhibition assay; read-out: IC50 (Stars)

IC50	SMILES
1000 to 10000 nM	CC(=O)c1cn(CC(=O)N2C[C@H](F)C[C@H]2C(=O)NCc2ccccc2)c2ccc(C(=O)NS(=O)(=O)C3CC3)cc12 [Compound 180, 3-acetyl-1-(2-((2S,4R)-2-(benzylcarbamoyl)-4-fluoropyrrolidin-1-yl)-2-oxoethyl)-N-(cyclopropylsulfonyl)-1H-indole-5-carboxamide]
1000 to 10000 nM	Cc1cccc(NC(=O)[C@@H]2[C@H]3CC[C@H](C3)N2C(=O)Cn2cc(C(N)=O)c3cc(C(=O)N4CCCC(F)(F)C4)ccc32)n1 [Compound 206, 5-(3,3-difluoropiperidine-1-carbonyl)-1-(2-((1R,3S,4S)-3-((6-methyl-pyridin-2-yl)-carbamoyl)-2-aza-bicyclo[2.2.1]heptan-2-yl)-2-oxoethyl)-1H-indole-3-carboxamide]
< 1000 nM	CC(=O)c1cn(CC(=O)N2C[C@H](F)C[C@H]2C(=O)NCCc2ccccc2)c2ccc(NC(=O)N3CCCC(F)(F)C3)cc12 [Compound 197, N-(3-acetyl-1-(2-((2S,4R)-4-fluoro-2-(phenethylcarbamoyl)pyrrolidin-1-yl)-2-oxoethyl)-1H-indol-5-yl)-3,3-difluoropiperidine-1-carboxamide]
< 1000 nM	CC(=O)c1cn(CC(=O)N2C[C@H](F)C[C@H]2C(=O)NCc2ccccc2)c2ccc(NC(=O)N3CCCC(F)(F)C3)cc12 [Compound 196, N-(3-acetyl-1-(2-((2S,4R)-2-(benzocarbamoyl)-4-fluoropyrrolidin-1-yl)-2-oxoethyl)-1H-indol-5-yl)-3,3-difluoropiperidine-1-carboxamide]
< 1000 nM	CC(=O)c1cn(CC(=O)N2C[C@H](F)C[C@H]2C(=O)NCc2cccc(Cl)c2F)c2ccc(C(=O)NS(=O)(=O)C3CC3)cc12 [Compound 208, 3-acetyl-1-(2-((2S,4R)-2-((3-chloro-2-fluorobenzyl)carbamoyl)-4-fluoropyrrolidin-1-yl)-2-oxoethyl)-N-(cyclopropylsulfonyl)-1H-indole-5-carboxamide]
> 10000 nM	CC(=O)c1cn(CC(=O)N2C[C@H](F)C[C@H]2C(=O)NCCc2ccccc2)c2ccc(C(=O)NS(=O)(=O)C3CC3)cc12 [Compound 185, 3-acetyl-N-(cyclopropylsulfonyl)-1-(2-((2S,4R)-4-fluoro-2-(phenethylcarbamoyl)pyrrolidin-1-yl)-2-oxoethyl)-1H-indole-5-carboxamide]
